Read-outs that look alike come from different tables or passages of the source. *1 amine or outer side, *2 acyl side, *3 side chain or, on linkers, in order; H or OH if unused. Where a SMILES comes first, the peptide text is derived from it. [ ]: non-standard residue; d: D form. The star is where a group is joined. X1 = O=C(c1ccc(/N=N/c2ccc(N[*:1])cc2)cc1)[*:2]; pY = N[C@@H](Cc1ccc(OP(=O)(O)O)cc1)C(=O)O; NBD = O=[N+]([O-])c1ccc(*)c2nonc12; βAla = NCCC(=O)O
Legend:
[1] = system: A549 cells; assay: Cell proliferation (SRB) assay, A549; type: cell-based, human
Protocol: (§1) PC-3, MCF-7, HeLa, U87, HPAEpiC, and A549 cells were purchased from the Type Culture Collection of the Chinese Academy of Sciences (Shanghai, China); PC-3, MCF-7, HeLa, U87, and A549 cells were cultured in Dulbecco's Modified Eagle's medium (DMEM) supplemented with 10% v/v fetal bovine serum (FBS), 100 U/mL penicillin, and 100 μg/mL streptomycin; HPAEpiC cells were cultured in RPMI 1640 Medium supplemented with 10% v/v fetal bovine serum, 100 U/mL penicillin, and 100 μg/mL streptomycin. All cells were at 37°C in a humidified atmosphere of 5% CO2.
(§2) In this experiment, all cell lines were incubated in a 96-well plate at a density of about 6000. According to previous method, cell was fixed by cold 10% trichloroacetic acid solution at 4°C overnight after incubated with compound for 48 h. Then, discarding the fixative solution and washed by water for three times, put the 96-well plate in a 37°C oven to dry. Next, 0.4% SRB solution was used to stain cell for 20 min at room temperature to form protein-bound dry, then using 1% AcOH solution to clean excessive SRB. Put the 96-well plate in a 37°C oven to dry and add 10 mM Tris base solution of 100 μL every well to solubilize the protein-bound dry for 30 min. Measure the OD at 570 nm in a microplate reader.

[2] = system: PC-3 cells; assay: Cell proliferation (SRB) assay, PC-3; type: cell-based; settings: 48 h incubation, n = 3
Protocol: as §1, §2

[3] = system: A549 cells; assay: JC-1 staining, mitochondrial membrane potential; type: cell-based, human; settings: 200 μM, 4 h time point
Protocol: Mitochondrial membrane potential was assessed by staining with JC-1 dye (5,50,6,60-tetrachloro-1,10,3,30-tetraethylbenzimidazol-carbocyanine iodide) (abcam). 1 × 10^4 A549 cells per well, seeded in 96-well plates, were treated with Comp.1 (200 μM) for different time points and FCCP (100 μM) for 4 h. After treatment, a medium was removed and the cells were then incubated in 100 μL PBS containing JC-1 dye (20 μM) for 15 min at 37°C and subsequently washed with PBS for three times. The red fluorescence (λexc. = 543 nm, emission = 570‐620 nm) was determined by a microplate reader (BioTek).
A549 cells were seeded in CLSM cultural dish at a density of 1 × 10^5 cells. After incubation for 12 h, a medium was removed. The cells were then incubated with Comp. 1 (200 μM) at different time points. The cells also were incubated with FCCP (100 μM) for 4 h as the positive control group. Then, removing medium, JC-1 staining kit (20 μM) was incubated with A549 cells for 15 min. The medium was removed, and the cells were washed by PBS three times. 1 mL of PBS was added for imaging by live cell imaging systems (green channel (depolarization) λexc. = 488 nm, emission = 500 − 540 nm; red channel (hyperpolarization) λexc. = 543 nm, emission = 570‐620 nm, all test conditions are consistent).

[4] = Appearance of solution in PBS; type: physicochemical; settings: 200 μM (0.03 wt%) in PBS pH 7.4
Protocol: (§3) The Comp. […] 1. […] We thereafter added the enzyme ALP (1 U·mL^−1) to the PBS solution of Comp. 1 at 37°C, and the solution remained clear after 12 h (Figure 2(a)). […] 1 had been converted to Comp. 2 within 6 h (Figures 2(a) and ). Accordingly, the nanofibers with a diameter of 6–10 nm formed in the resulting solution of Comp. 2 (Figure 2(c)). With the addition of rat liver microsomes (226 μg·mL^−1) and NADPH (50 equiv.) to trigger the conversion from azobenzene to aniline, a yellowish precipitate was clearly observed within 24 h (Figure 2(b)). […] 2 had been converted into Comp. 3 within 24 h (Figures 2(b) and ). […] 2 and Comp. 3. […] The above observations strongly indicated the tandem molecular self-assembly behavior of Comp. 1 with the catalysis by ALP and reductase.
(§4) […] of Comp. 1 was dissolved in 500 μL of PBS (pH = 7.4) as a stock solution (PBS was bubbled by Argon for 30 min in advance). The concentration of the stock solution was 200 μM. Na2CO3 (1 M) was added to the above solution to adjust the final pH to 7.4. The solution was incubated at 37°C. The alkali phosphatase (1 U/mL) was then added to the solution for 12 hours at 37°C to trigger the first step of self-assembly. After that, rat liver microsomes (226 μg/mL) and NADPH (50 equiv.) were added for 24 hours at 37°C to trigger the second step of self-assembly.

[5] = system: A549 xenograft tumors; assay: In vivo antitumor assay, A549 xenograft; design: species or system BALB/c nude mice; settings: 5 mg/kg i.v. once every three days, tumors at day 15
Protocol: (§5) A549 cells were maintained in our lab. The BALB/c nude (6 weeks old, female) mice purchased from Beijing Vital River Laboratory Animal Technology Co., Ltd. were used. 5 × 10^7 A549 cells (100 μL) mixed with growth factor-reduced Matrigel (50 μL, BD Biosciences) were subcutaneously injected into the right flank of each mouse. The drug treatment was started when tumor volume reached 80 mm^3; the tumor volume was calculated by the formula: length∗width^2/2. Mice (n = 5) received compounds 1, 2, 4, and 5 (5.0 mg/kg) in PBS by i.v. injection, whereas the control group (n = 5) received PBS only. The compound was injected every three days. The mice were weighed, and tumors were measured every two days during the treatment period.
The mice were sacrificed to obtain tumor tissues; tumor tissues were fixed by 4% formalin over 48 h, embedded in paraffin, cut into 5-6 μm sections for H&E staining, and evaluated using light microscopy as previously described method.

[6] = system: T1, alkaline phosphatase (ALP); assay: Conversion by alkaline phosphatase (LC-MS); type: in vitro ADME; settings: alkaline phosphatase (ALP) in PBS; ALP 1 U/mL, 200 μM in PBS pH 7.4, 37°C, within 6 h, LC-MS trace; read-out: Comp. 1 converted to Comp. 2
T1 construct: purchased Takara D2250
Protocol: as §3, §4

[7] = Body weight of treated tumor-bearing mice; type: in vivo, BALB/c nude mice; settings: 5 mg/kg i.v. once every three days
Protocol: as §5

[8] = system: A549 cells; assay: Lysosome colocalization (CLSM, Lyso-Tracker); type: cell-based, human; settings: 200 μM; for lysosomal escape: 4 h, Lyso-Tracker; for mean fluorescence intensity in cells (versus cells treated with Comp. 4 and Comp. 5): A549 cells
Protocol: (§6) A549 cells was seeded in CLSM cultural dish at a density of 1 × 10^5 cells. After incubation for 12 h, a medium was removed. The cells were then incubated with Comp. 1, 2, 4, or 5 (200 μM) for 1 or 4 h (lysosome colocation). Cells were incubated with Comp. 1 (200 μM) for 8, 10, and 12 h (mitochondrial colocation). Next, the medium containing different compound was removed and washed by PBS for three times, and lysosome tracker (1×) was incubated with cells for 45 min. The medium was removed and the cells were washed by PBS three times. 1-2 mL of DMEM was added for imaging by live cell imaging systems (λexc. = 488 nm, emission = 510‐560 nm; λexc. = 543 nm, emission = 650‐750 nm). Mito-Tracker (1×) was incubated with cells for 30 min. The medium was then removed and washed by PBS three times. 1-2 mL of DMEM was added for imaging by live cell imaging systems (λexc. = 488 nm, emission = 510‐560 nm; λexc. = 633 nm, emission = 650‐750 nm, all test conditions are consistent).

[9] = system: different cell lines; assay: Cell uptakes; type: cell-based; settings: 200 μM, 6 h, cell lysate OD 488 nm, n = 3
Protocol: Cells were incubated in 12-well plates at a density of 10 × 10^6 cells. The cell cultural medium containing 200 μM of each compound was added to the cells, and the upper medium was removed at 6 h time point. Cells were washed for three times with PBS or DMEM. After being treated with cell lysis solution (1 mL per well contained 200 μL DMSO) for 15 min, the solutions were centrifuged at […] for 10 min. The amount of compound in the upper solution was determined by a microplate reader at OD of 488 nm (Bio-Rad Mark^TM, America).

[10] = system: normal human alveolar epithelial cells (HPAEpiC); assay: Cell proliferation (SRB) assay, HPAEpiC; type: cell-based; settings: 48 h incubation, n = 3
Protocol: as §1, §2

[11] = Critical aggregation concentration (CAC) by dynamic light scattering; type: physicochemical; settings: DLS, light scattering intensity per concentration, PBS pH 7.4
Protocol: The synthesized compounds were characterized by 1H NMR (Bruker ARX-400) using DMSO-d6 as the solvent. HPLC was conducted at the LUMTECH HPLC (Germany) system using a C18 RP column with methanol (0.05% of TFA) and water (0.05% of TFA) as the eluents. LC-MS was conducted at the LCMS-20AD (Shimadzu) system. HR-MS was performed at the Agilent 6520 Q-TOF LC/MS using ESI-L low concentration tuning mix (Lot No. LB60116 from the Agilent Tech.). CMC values and size distribution of micelles were determined by dynamic light scattering (DLS); this experiment was conducted on a laser light scattering spectrometer (BI-200SM, Brookhaven, USA). The morphology conversion of the peptide derivatives was measured by TEM performed on a Tecnai G2 F20 system, operating at 200 kV. Cellular uptake and drug tracking images were taken by a confocal laser scanning microscopy (Leica TSC SP8, Germany).
The CAC value of compounds 1, 2, 4, and 5 in PBS solution (pH = 7.4) was determined by dynamic light scattering (DLS), and the light scattering intensity was recorded for each concentration analyzed.

[12] = system: U87 cells; assay: Cell proliferation (SRB) assay, U87; type: cell-based; settings: 48 h incubation, n = 3
Protocol: as §1, §2

[13] = system: A549 cells; assay: Mitochondrial colocalization / cytoplasmic vacuolization, ER stress (CLSM, Mito-Tracker); type: cell-based, human; settings: 200 μM, 10-12 h
Protocol: as §6

[14] = system: MCF-7 cells; assay: Cell proliferation (SRB) assay, MCF-7; type: cell-based; settings: 48 h incubation, n = 3
Protocol: as §1, §2

[15] = system: HeLa cells; assay: Cell proliferation (SRB) assay, HeLa; type: cell-based; settings: 48 h incubation, n = 3
Protocol: as §1, §2

[16] = system: reductase (rat liver microsomes); assay: in vitro; type: in vitro ADME; settings: pH 7.4
Protocol: as §3, §4

[17] = SRB, 48 h incubation, mean ± SEM n = 3, read-out: IC50 in A549 cells

SMILES: N=C(N)NCCC[C@H](NC(=O)[C@H](CCC(=O)O)NC(=O)CNC(=O)[C@H](Cc1ccc(O)cc1)NC(=O)[C@H](Cc1ccccc1)NC(=O)[C@H](Cc1ccccc1)NC(=O)CNC(=O)CCNc1ccc([N+](=O)[O-])c2nonc12)C(=O)NCC(=O)N[C@@H](CC(=O)O)C(=O)O [Comp. 5, NBD-GFFYGERGD] ({NBD-βAla}-GFFYGERGD-OH)
- IC50 ([1]; 48 h): > 500 µM

SMILES: N=C(N)NCCC[C@H](NC(=O)[C@H](CCC(=O)O)NC(=O)c1ccc(/N=N/c2ccc(NC(=O)CNC(=O)[C@H](Cc3ccc(OP(=O)(O)O)cc3)NC(=O)[C@H](Cc3ccccc3)NC(=O)[C@H](Cc3ccccc3)NC(=O)CNC(=O)CCNc3ccc([N+](=O)[O-])c4nonc34)cc2)cc1)C(=O)NCC(=O)N[C@@H](CC(=O)O)C(=O)O [Comp. 1, NBD-GFFpYG-N=N-ERGD] ({NBD-βAla}-GFF[pY]G[X1]ERGD-OH)
- IC50 [2]: ~20.5 µM
- mitochondrial membrane potential (JC-1) [3]: caused mitochondrial depolarization
- appearance of solution [4]: clear solution
- H&E histology of tumor tissue [5]: severely apoptotic
- metabolised at 6 h, 200 μM [6]: > 95%
- body weight change [7]: did not exhibit a loss of body weight
- lysosomal escape [8]: efficiently escaped from the late endosomes/lysosomes
- mean fluorescence intensity in cells (versus cells treated with Comp. 4 and Comp. 5) [8]: significantly higher
- cellular uptake in different cells [9]: no significant differences
- IC50 [10]: ~40.1 µM
- critical aggregation concentration (CAC) [11]: 263.6 µM
- IC50 [12]: ~5.07 µM
- ER stress / cytoplasmic vacuolization [13]: massive cytoplasmic vacuolization
- IC50 [1, 17]: ~2.49 µM
- IC50 [14]: ~15.9 µM
- IC50 [15]: ~74.7 µM

SMILES: N=C(N)NCCC[C@H](NC(=O)[C@H](CCC(=O)O)NC(=O)c1ccc(/N=N/c2ccc(NC(=O)CNC(=O)[C@H](Cc3ccc(O)cc3)NC(=O)[C@H](Cc3ccccc3)NC(=O)[C@H](Cc3ccccc3)NC(=O)CNC(=O)CCNc3ccc([N+](=O)[O-])c4nonc34)cc2)cc1)C(=O)NCC(=O)N[C@@H](CC(=O)O)C(=O)O [Comp. 2, NBD-GFFYG-N=N-ERGD] ({NBD-βAla}-GFFYG[X1]ERGD-OH)
- H&E histology of tumor tissue [5]: underwent apoptosis
- lysosomal escape [8]: small fraction of lysosomal escape
- mean fluorescence intensity in cells (versus cells treated with Comp. 4 and Comp. 5) [8]: significantly higher
- metabolised at 24 h, 200 μM [16]: > 70%
- ER stress / cytoplasmic vacuolization [13]: only caused slight ER stress
- IC50 [1, 17]: 82.7 µM

SMILES: N=C(N)NCCC[C@H](NC(=O)[C@H](CCC(=O)O)NC(=O)CNC(=O)[C@H](Cc1ccc(OP(=O)(O)O)cc1)NC(=O)[C@H](Cc1ccccc1)NC(=O)[C@H](Cc1ccccc1)NC(=O)CNC(=O)CCNc1ccc([N+](=O)[O-])c2nonc12)C(=O)NCC(=O)N[C@@H](CC(=O)O)C(=O)O [Comp. 4, NBD-GFFpYGERGD] ({NBD-βAla}-GFF[pY]GERGD-OH)
- IC50 [1, 17]: > 500 µM

Reference: paper PMC6944487, “Tandem Molecular Self-Assembly Selectively Inhibits Lung Cancer Cells by Inducing Endoplasmic Reticulum Stress” (Research, 2019)
